US20080182822A1, “Liquid Pharmaceutical Compositions Comprising a Bisphosphonate Compound” (Besins Healthcare SA, priority 2006, published 2008)
Values joined by “and” are separate entries in the source; they are usually repeats but may differ in a detail not shown here. Equal entries are not always repeated. Where two headings read alike, the source gives them in different places.

Conditions: rat; for Faeces Excretion, Amount Excreted (% of Dose), 8 hours / Urinary Excretion, Amount Excreted (% of Dose), 8 hours: collection 0-8 hours; for Faeces Excretion, Amount Excreted (% of Dose), 72 hours / Urinary Excretion, Amount Excreted (% of Dose), 72 hours: collection 48-72 hours; for Faeces Excretion, Amount Excreted (% of Dose), 96 hours / Urinary Excretion, Amount Excreted (% of Dose), 96 hours: collection 72-96 hours; for Faeces Excretion, Amount Excreted (% of Dose), 120 hours / Urinary Excretion, Amount Excreted (% of Dose), 120 hours: collection 96-120 hours; for Faeces Excretion, Amount Excreted (% of Dose), 144 hours / Urinary Excretion, Amount Excreted (% of Dose), 144 hours: collection 120-144 hours; for Faeces Excretion, Amount Excreted (% of Dose), 168 hours / Urinary Excretion, Amount Excreted (% of Dose), 168 hours: collection 144-168 hours; for Recovery from Treated Skin, % of Dose: dermal (Group 2)
[1] = dermal 1.9 mg (Group 2), individual animals
[2] = dermal 1.9 mg (Group 2), collection 8-24 hours, individual animals
[3] = dermal 1.9 mg (Group 2), collection 24-48 hours, individual animals
[4] = dermal 1.9 mg (Group 2), necropsy Day 4, Mean
[5] = dermal 1.9 mg (Group 2), necropsy Day 4, individual animals
[6] = dermal 1.9 mg (Group 2), necropsy Day 8, Mean
[7] = dermal 1.9 mg (Group 2), necropsy Day 8, individual animals

NCCCC(O)(P(=O)(O)O)P(=O)(O)O [14C-alendronate]
Faeces Excretion, Total Excretion (% of Dose), 0-168 hours (dermal 1.9 mg (Group 2), Mean): approximately 2 % of Dose
Urinary Excretion, Total Excretion (% of Dose), 0-72 hours (dermal 1.9 mg (Group 2), Mean): 0.40% of Dose
Faeces Excretion, Amount Excreted (% of Dose), 8 hours (dermal 1.9 mg (Group 2), Mean): 0.004% of Dose
Urinary Excretion, Amount Excreted (% of Dose), 8 hours (dermal 1.9 mg (Group 2), Mean): 0.17% of Dose
Faeces Excretion, Amount Excreted (% of Dose), 8 hours [1]: 0.004% of Dose (2×) and 0.000% of Dose (2×) and 0.001% of Dose (2×) and 0.014% of Dose and 0.003% of Dose
Urinary Excretion, Amount Excreted (% of Dose), 8 hours [1]: 0.15% of Dose and 0.02% of Dose and 0.05% of Dose and 0.08% of Dose (2×) and 0.22% of Dose and 0.14% of Dose and 0.09% of Dose and 0.83% of Dose and 0.07% of Dose
Urinary Excretion, Amount Excreted (% of Dose), 24 hours (dermal 1.9 mg (Group 2), collection 8-24 hours, Mean): 0.12% of Dose
Faeces Excretion, Amount Excreted (% of Dose), 24 hours [2]: 0.047% of Dose and 0.001% of Dose and 0.066% of Dose
Urinary Excretion, Amount Excreted (% of Dose), 24 hours [2]: 0.07% of Dose (3×) and 0.06% of Dose (2×) and 0.05% of Dose and 0.27% of Dose and 0.33% of Dose and 0.16% of Dose and 0.11% of Dose
Urinary Excretion, Amount Excreted (% of Dose), 48 hours (dermal 1.9 mg (Group 2), collection 24-48 hours, Mean): 0.06% of Dose
Faeces Excretion, Amount Excreted (% of Dose), 48 hours [3]: 0.68% of Dose and 0.30% of Dose and 0.58% of Dose and 0.60% of Dose and 0.53% of Dose and 0.52% of Dose
Urinary Excretion, Amount Excreted (% of Dose), 48 hours [3]: 0.06% of Dose (5×) and 0.02% of Dose (2×) and 0.14% of Dose and 0.12% of Dose and 0.03% of Dose
Faeces Excretion, Amount Excreted (% of Dose), 72 hours (dermal 1.9 mg (Group 2), Mean): 0.16% of Dose
Urinary Excretion, Amount Excreted (% of Dose), 72 hours (dermal 1.9 mg (Group 2), Mean): 0.04% of Dose
Faeces Excretion, Amount Excreted (% of Dose), 72 hours [1]: 0.33% of Dose and 0.19% of Dose and 0.15% of Dose and 0.10% of Dose and 0.46% of Dose and 0.17% of Dose and 0.05% of Dose and 0.02% of Dose (2×)
Urinary Excretion, Amount Excreted (% of Dose), 72 hours [1]: 0.06% of Dose (2×) and 0.02% of Dose (3×) and 0.03% of Dose (2×) and 0.01% of Dose (2×) and 0.13% of Dose
Faeces Excretion, Amount Excreted (% of Dose), 96 hours (dermal 1.9 mg (Group 2), Mean): 0.10% of Dose
Urinary Excretion, Amount Excreted (% of Dose), 96 hours (dermal 1.9 mg (Group 2), Mean): 0.03% of Dose
Faeces Excretion, Amount Excreted (% of Dose), 96 hours [1]: 0.13% of Dose and 0.05% of Dose (2×) and 0.09% of Dose and 0.18% of Dose
Urinary Excretion, Amount Excreted (% of Dose), 96 hours [1]: 0.05% of Dose and 0.03% of Dose (2×) and 0.02% of Dose and 0.01% of Dose
Faeces Excretion, Amount Excreted (% of Dose), 120 hours (dermal 1.9 mg (Group 2), Mean): 0.07% of Dose
Urinary Excretion, Amount Excreted (% of Dose), 120 hours (dermal 1.9 mg (Group 2), Mean): 0.02% of Dose
Faeces Excretion, Amount Excreted (% of Dose), 120 hours [1]: 0.13% of Dose and 0.05% of Dose (2×) and 0.02% of Dose and 0.10% of Dose
Urinary Excretion, Amount Excreted (% of Dose), 120 hours [1]: 0.06% of Dose and 0.02% of Dose (2×) and 0.01% of Dose (2×)
Faeces Excretion, Amount Excreted (% of Dose), 144 hours (dermal 1.9 mg (Group 2), Mean): 0.05% of Dose
Urinary Excretion, Amount Excreted (% of Dose), 144 hours (dermal 1.9 mg (Group 2), Mean): 0.01% of Dose
Faeces Excretion, Amount Excreted (% of Dose), 144 hours [1]: 0.07% of Dose and 0.04% of Dose (2×) and 0.03% of Dose and 0.09% of Dose
Urinary Excretion, Amount Excreted (% of Dose), 144 hours [1]: 0.02% of Dose and 0.01% of Dose (4×)
Faeces Excretion, Amount Excreted (% of Dose), 168 hours (dermal 1.9 mg (Group 2), Mean): 0.00% of Dose
Urinary Excretion, Amount Excreted (% of Dose), 168 hours (dermal 1.9 mg (Group 2), Mean): 0.00% of Dose
Faeces Excretion, Amount Excreted (% of Dose), 168 hours [1]: 0.01% of Dose (3×) and 0.00% of Dose (2×)
Urinary Excretion, Amount Excreted (% of Dose), 168 hours [1]: 0.01% of Dose and 0.00% of Dose (4×)
Faeces Excretion, Total Excretion (% of Dose), 0-72 hours [1]: 0.53% of Dose and 0.88% of Dose and 0.59% of Dose
Faeces Excretion, Total Excretion (% of Dose), 0-168 hours [1]: 0.66% of Dose
Urinary Excretion, Total Excretion (% of Dose), 0-72 hours [1]: 0.34% of Dose and 0.16% of Dose and 0.20% of Dose and 0.17% of Dose and 0.57% of Dose and 0.74% of Dose and 0.21% of Dose and 0.23% of Dose and 0.22% of Dose
Concentration in bone, Femur [4]: 0.060 μg 14C-alendronate/g bone
Concentration in bone, Tibia [4]: 0.039 μg 14C-alendronate/g bone
Concentration in bone, Femur [5]: 0.222 μg 14C-alendronate/g bone and 0.018 μg 14C-alendronate/g bone (2×) and 0.015 μg 14C-alendronate/g bone and 0.026 μg 14C-alendronate/g bone
Concentration in bone, Tibia [5]: 0.130 μg 14C-alendronate/g bone and 0.039 μg 14C-alendronate/g bone and 0.016 μg 14C-alendronate/g bone and 0.002 μg 14C-alendronate/g bone and 0.011 μg 14C-alendronate/g bone
Concentration in bone, Femur [6]: 0.029 μg 14C-alendronate/g bone
Concentration in bone, Tibia [6]: 0.017 μg 14C-alendronate/g bone
Concentration in bone, Femur [7]: 0.022 μg 14C-alendronate/g bone and 0.016 μg 14C-alendronate/g bone and 0.011 μg 14C-alendronate/g bone and 0.069 μg 14C-alendronate/g bone
Concentration in bone, Tibia [7]: 0.012 μg 14C-alendronate/g bone and 0.007 μg 14C-alendronate/g bone and 0.031 μg 14C-alendronate/g bone
Recovery from Treated Skin, % of Dose (necropsy Day 4, Mean): 0.35%
Recovery from Treated Skin, % of Dose (necropsy Day 4, individual animals): 0.35% (2×) and 0.30% and 0.44% and 0.33%
Recovery from Treated Skin, % of Dose (necropsy Day 8, Mean): 0.28%
